In ChEMBL document CHEMBL3046435, “Isolation and identification of insecticidal components from Citrus aurantium fruit peel extract” (2008):
Calls of active or inactive are those of the source. The rule behind the calls is not given here.

How the values were obtained:
[1] = system: Bactrocera oleae; experiment: Insecticidal activity against Bactrocera oleae exposed to 1.12 ug/cm2 compound for 12 hr assessed as insect mortality measured 72 hr post dose by petri dish exposure bioassay (reference value: 2 +/- 2%); format: functional
[2] = system: Bactrocera oleae; experiment: Insecticidal activity against Bactrocera oleae exposed to compound for 12 hr assessed as insect mortality measured 72 hr post dose by petri dish exposure bioassay (reference value: 2 +/- 2%); format: functional, organism-based
[3] = system: Bactrocera oleae; experiment: Insecticidal activity against Bactrocera oleae exposed to 0.45 ug/cm2 compound for 12 hr assessed as insect mortality measured 72 hr post dose by petri dish exposure bioassay (reference value: 2 +/- 2%); format: functional, organism-based

Compound | mortality [1] | Activity [2] | Activity [3]
C/C(=C\COc1c2ccoc2cc2oc(=O)ccc12)CCC1OC1(C)C (centres undefined) [6',7'-EPOXYBERGAMOTTIN] | 48% | – | –
COc1c2ccoc2cc2oc(=O)ccc12 | – | inactive | inactive
COc1ccc2ccc(=O)oc2c1CC=C(C)C | – | – | inactive
